“And” between values parts separate entries of the source, which are not always exact repeats. Equal values may be shown once.
Assays:
Type in all cases: cell-based, human
SKOV3 cells [1] = experiment: [14C]alanine uptake in non-depleted SKOV3 cells; details: amino acid replete SKOV3 cells
Method: Functional characterisation of plasma membrane transporters in human cancer cells was determined at 37°C using an array of radiolabelled amino acid substrates. Modified Hanks HEPES-buffered salts solution (mHBSS; 137 mM NaCl; 5.4 mM KCl; 2.7 mM K2HPO4; 1 mM CaCl2; 0.5 mM MgCl2; 0.44 mM KH2PO4; 0.4 mM MgSO4; 5 mM D-glucose; 5 mM HEPES; pH 7.4) was used to wash and incubate cells where sodium dependent transport was measured, while N-methyl-D-glucamine (NMDG) and potassium salts substituted sodium in NMDG mHBSS to measure sodium independent uptake. For the assay, cells were seeded in 35 mm dishes and, once confluent, were washed thrice with warm mHBSS solution and incubated with mHBSS containing an 100 µM amino acid at a final specific activity of ≥2000 cpm/nmol (U-[^14C]amino acids were from PerkinElmer). After 6 min, cells were washed thrice with ice-cold mHBSS, lysed with 500 µl of 0.1 M HCl, detached with a cell scraper and triturated. A 400 µl aliquot was used for scintillation counting, while the remainder was saved for protein mass quantification by Bradford assay. Transport rates were normalised to the protein content of the culture dish.

SKOV3 cells [2] = experiment: Growth assay (IncuCyte confluence), SKOV3; set-up: key to Growth (Figure 6A): % confluence; details: for Growth (Figure 6A): SKOV3
Method: (§1) Cells were seeded on 96-well flat bottom plates at approximately 3000 cells/well and incubated in growth medium (DMEM/F12 supplemented with 10% FBS, 2 mM glutamine) for 24 h. The next day, the growth medium was aspirated and exchanged with 300 μL/well of growth medium containing compounds at the indicated concentration. For live cell analysis, plates were placed in the IncuCyte system (Essen Bioscience), which was housed in a cell incubator (37°C, humidified atmosphere composed of 95% air and 5% CO2) and confluence measured at 6-h intervals or at the assay endpoint when untreated control cells reached a confluency >90%. Antibiotics (10 U/mL penicillin and 10 μg/ml streptomycin) were included in the treatment solutions.
(§2) Growth curves were generated using the Gompertz function of OriginPro software: y=ae^−e^(−k(x−xc))
(§3) Where a is the maximum confluence or upper asymptote, k is the growth rate coefficient, xc is the time point at which 50% confluence is reached (inflection point) and e is Euler’s number. Cell growth data are shown as % confluence.

MDA-MB-231 cells = experiment: Growth assay (IncuCyte confluence), MDA-MB-231; set-up: key to Growth (Figure 6A) / cell confluence (Figure 6F): % confluence; details: for Growth (Figure 6A): MDA-MB-231
Method: as §1, §2, §3
Synergism between drug combinations was quantified using ZIP synergy scoring as calculated by SynergyFinder ([Yadav et al., 2015]).

## Cc1ccc(S(=O)(=O)N(C)c2ccsc2C(=O)NCc2ccccc2C(F)(F)F)cc1 [Compound 57_E, 3-(N-methyl (4-methylphenyl)sulfonamido)-N-(2-trifluoromethylbenzyl)thiophene-2-carboxamide]
SKOV3 cells [1]
  inhibition of [14C]alanine uptake: did not inhibit any transporter in this cell line
SKOV3 cells [2]; 57E 20 µM alone
  growth of SKOV3 cells: did not slow growth
SKOV3 cells [2]; SKOV3, growth medium
  tolerated concentration: up to 30 μM
SKOV3 cells [2]; concentration 1
  Growth (Figure 6A): 88.8 and 91.35 and 86.25
SKOV3 cells [2]; concentration 3
  Growth (Figure 6A): 85.9 and 94.3 and 88.85
SKOV3 cells [2]; concentration 10
  Growth (Figure 6A): 89 and 93.8 and 85
SKOV3 cells [2]; concentration 30
  Growth (Figure 6A): 64.8 and 80.1 and 77.7
SKOV3 cells [2]; concentration 100
  Growth (Figure 6A): 70.05 and 72.4 and 76.75
MDA-MB-231 cells; MDA-MB-231, growth medium
  tolerated concentration: up to 30 μM
MDA-MB-231 cells; concentration 1
  Growth (Figure 6A): 82.35 and 90.35 and 97.85
MDA-MB-231 cells; concentration 3
  Growth (Figure 6A): 76.3 and 97.1 and 98.3
MDA-MB-231 cells; concentration 10
  Growth (Figure 6A): 70.5 and 94.85 and 92.9
MDA-MB-231 cells; concentration 30
  Growth (Figure 6A): 68.4 and 70.75 and 88.35
MDA-MB-231 cells; concentration 100
  Growth (Figure 6A): 57.95 and 91.15 and 66.7

— publication PMC9532951, “Identification and characterization of a novel SNAT2 (SLC38A2) inhibitor reveals synergy with glucose transport inhibition in cancer cells” (Frontiers in Pharmacology, 2022)
